Source: article PMC8619920, “New Polyesterified Ursane Derivatives from Leaves of Maesa membranacea and Their Cytotoxic Activity” (Molecules, 2021)

Key:
[1] = Cytotoxicity, LDH assay, HT29 cells; assay type: cell-based, human; settings: human, HT29 colon adenocarcinoma cells, 24 h, mean ± SD of three, read-out: Cell viability HT29
Experimental: (§1) Cytotoxic activity was tested on human cancer and normal cells, grouped in three panels, namely: prostate, skin and gastrointestinal. The prostate panel consisted of prostate cancer cell lines Du145 (ATCC HTB-81) and PC3 (ATCC CRL-1435), and prostate epithelial cells PNT-2 (ECACC 95012613). Melanoma cell lines A375 (ATCC CRL-1619) and HTB140 (ATCC Hs 294T) together with skin keratinocytes HaCaT (obtained as a kind gift of prof. Marta Michalik, Department of Cell Biology, Jagiellonian University, Kraków, Poland) were included into the skin panel. The gastrointestinal panel of cells comprised colon cancer cell lines Caco-2 (ATCC HTB-37) and HT29 (ATCC HTB-38). Du145 cells were grown in Modified Eagle’s Medium with low (1.0 g/L) glucose concentration, HT29, PC3 and PNT-2 cells in Dulbecco’s Modified Eagle’s Media: F12 HAM Nutrient Mixture, Caco-2 in Modified Eagle’s Medium with NEAA (no-essential amino acids) while melanoma cells and keratinocytes were maintained in Modified Eagle’s Medium with high (4.5 g/L) glucose concentration. The culture media (all supplied by Sigma-Aldrich Co.; St. Louis, MO, USA) contained antibiotics and 10% fetal bovine serum (FBS). All cultures were maintained at 37 °C, in a humidified, 5% CO2 containing, atmosphere.
(§2) The examined triterpenes were diluted in the culture media from freshly made stock solutions in MeOH (10 mg/mL) to the working concentrations (from 0 to 100 μg/mL).
(§3) Cell viability was determined as it was described previously. Cells suspended in the nutrient medium were transferred into 96-well microtiter plates (density 1.5 × 10^4 per well), and preincubated for 24 h (37 °C, 5% CO2). Then, the culture medium was replaced with the medium containing different concentrations of 1 or 2 (1–100 μg/mL). After 24 h of incubation, viability of the cells was determined using colorimetric lactate dehydrogenase (LDH) assay, in comparison to the controls to which corresponding aliquots of MeOH diluted with culture media were added. Cells grown in the medium without the tested compounds were used as control I (negative) and the positive control (control II) was obtained by incubation of the cells in the medium containing 1% Triton X-100. LDH released from the damaged cells into the cell culture medium was quantified by measuring the absorbance at 490 nm using Synergy II Biotek (BioTek Instruments, Winooski, VT, USA) microplate reader. Cytotoxicities of the examined compounds were calculated as follows: [(absorbance of the tested sample − absorbance of control I)/(absorbance of control II − absorbance of control I)] × 100. Results were means of three independent measurements (± SD). Doxorubicin (Ebewe Pharma GmbH., Unterach, Austria) was used as a reference cytostatic drug. The IC50 values were determined by plotting the percentage viability of the cells versus concentration and the adequate calculations made using AAT Bioquest website program (https://www.aatbio.com/tools/ic50-calculator, accessed on 29 October 2021).

[2] = test system: HT29 human colon adenocarcinoma cells; test: Cytotoxicity, LDH assay, HT29 cells; assay type: cell-based; settings: Homo sapiens, HT-29; 24 h treatment, 5–100 μg/mL
Experimental: as §1, §2, §3

[3] = Cytotoxicity, LDH assay, HTB140 cells; assay type: cell-based, human; settings: human, HTB140 melanoma cells, 24 h, mean ± SD of three, read-out: Cell viability HTB140
Experimental: as §1, §2, §3

[4] = test system: Caco-2 human colon adenocarcinoma cells; test: Cytotoxicity, LDH assay, Caco-2 cells; assay type: cell-based; settings: Homo sapiens, Caco-2, 24 h, 24 h treatment, 5–100 μg/mL
Experimental: as §1, §2, §3

[5] = Cytotoxicity, LDH assay, Caco-2 cells; assay type: cell-based, human; settings: human, Caco-2, 24 h, mean ± SD of three, read-out: Cell viability Caco-2
Experimental: as §1, §2, §3

[6] = test system: PC3 human prostate adenocarcinoma cells; test: Cytotoxicity, LDH assay, PC3 cells; assay type: cell-based
Experimental: as §1, §2, §3

[7] = Cytotoxicity, LDH assay, PC3 cells; assay type: cell-based, human; settings: human, PC3 prostate adenocarcinoma cells, 24 h, mean ± SD of three, read-out: Cell viability PC3
Experimental: as §1, §2, §3

[8] = Cytotoxicity, LDH assay, A375 cells; assay type: cell-based, human; settings: human, A375 malignant melanoma cells, 24 h, mean ± SD of three, read-out: Cell viability A375
Experimental: as §1, §2, §3

[9] = test system: A375 human malignant melanoma cells; test: Cytotoxicity, LDH assay, A375 cells; assay type: cell-based; settings: Homo sapiens, A-375; 24 h treatment, 5–100 μg/mL
Experimental: as §1, §2, §3

[10] = Cytotoxicity, LDH assay, DU145 cells; assay type: cell-based, human; settings: human, DU145 prostate carcinoma cells, 24 h, mean ± SD of three, read-out: Cell viability DU145
Experimental: as §1, §2, §3

[11] = test system: DU145 human prostate carcinoma cells; test: Cytotoxicity, LDH assay, DU145 cells; assay type: cell-based; settings: Homo sapiens, DU-145, 24 h, 24 h treatment, 5–100 μg/mL
Experimental: as §1, §2, §3

[12] = test system: PNT-2 human normal prostate epithelium cells; test: Cytotoxicity, LDH assay, PNT-2 cells; assay type: cell-based; settings: Homo sapiens, PNT2; 24 h treatment, 5–100 μg/mL
Experimental: as §1, §2, §3

[13] = Cytotoxicity, LDH assay, PNT-2 cells; assay type: cell-based, human; settings: human, 24 h, mean ± SD of three, read-out: Cell viability PNT-2
Experimental: as §1, §2, §3

Q: With CC(=O)OC1CC2(C)C(C(OC(C)=O)CC3(C)C2C(O)C=C2C4C(C)C(C)(O)CC(OC(C)=O)C4(C)CCC23C)C(C)(C)C1O (stereo not drawn) [Compound 2, 2α,6β,22α-triacetoxy-urs-12-ene-3α,11α,20β-triol] as the compound, how does the viability at 24 h, 5 μg/mL ([1]; 5 μg/mL) read?
A: 95.76 ± 0.69%

Q: What about the viability at 24 h, 10 μg/mL ([1]; 10 μg/mL) of the same compound?
A: 94.55 ± 0.84%

Q: And the viability at 24 h, 20 μg/mL ([1]; 20 μg/mL)?
A: 90.05 ± 0.74%

Q: And the viability at 24 h, 30 μg/mL ([1]; 30 μg/mL)?
A: 81.7 ± 1.56%

Q: And the viability at 24 h, 40 μg/mL ([1]; 40 μg/mL)?
A: 74.8 ± 1.13%

Q: And the viability at 24 h, 50 μg/mL ([1]; 50 μg/mL)?
A: 67.2 ± 1.25%

Q: What about the viability at 24 h, 100 μg/mL ([1]; 100 μg/mL) of the same compound?
A: 56.9 ± 1.85%

Q: And the IC50 [2]?
A: > 100 mg/L

Q: What about the viability at 24 h, 5 μg/mL ([3]; 5 μg/mL) of the same compound?
A: 97.48 ± 0.79%

Q: And the viability at 24 h, 20 μg/mL ([3]; 20 μg/mL)?
A: 96.4 ± 0.83%

Q: What about the viability at 24 h, 30 μg/mL ([3]; 30 μg/mL) of the same compound?
A: 94.3 ± 1.45%

Q: And the viability at 24 h, 40 μg/mL ([3]; 40 μg/mL)?
A: 93.7 ± 1.11%

Q: What about the viability at 24 h, 50 μg/mL ([3]; 50 μg/mL) of the same compound?
A: 92 ± 1.64%

Q: And the viability at 24 h, 100 μg/mL ([3]; 100 μg/mL)?
A: 89.5 ± 1.4%

Q: What about the IC50 [4] of the same compound?
A: > 50 mg/L

Q: And the viability at 24 h, 5 μg/mL ([5]; 5 μg/mL)?
A: 94.7 ± 1.42%

Q: What about the viability at 24 h, 10 μg/mL ([5]; 10 μg/mL) of the same compound?
A: 88.4 ± 0.92%

Q: What about the viability at 24 h, 20 μg/mL ([5]; 20 μg/mL) of the same compound?
A: 82 ± 1.69%

Q: What about the viability at 24 h, 30 μg/mL ([5]; 30 μg/mL) of the same compound?
A: 74.7 ± 1.19%

Q: What about the viability at 24 h, 40 μg/mL ([5]; 40 μg/mL) of the same compound?
A: 65.8 ± 1.25%

Q: And the viability at 24 h, 50 μg/mL ([5]; 50 μg/mL)?
A: 61.1 ± 2.37%

Q: What about the viability at 24 h, 100 μg/mL ([5]; 100 μg/mL) of the same compound?
A: 49.6 ± 1.49%

Q: And the “Cell viability PC3” value ([6]; 100 μg/mL, 24 h, mean ± SD of three)?
A: > 47%

Q: And the IC50 ([6]; Homo sapiens, PC-3, 24 h, 24 h treatment, 5–100 μg/mL)?
A: > 50 mg/L

Q: What about the viability at 24 h, 5 μg/mL ([7]; 5 μg/mL) of the same compound?
A: 96.6 ± 1.35%

Q: And the viability at 24 h, 10 μg/mL ([7]; 10 μg/mL)?
A: 94.1 ± 1.24%

Q: And the viability at 24 h, 20 μg/mL ([7]; 20 μg/mL)?
A: 87.9 ± 1.54%

Q: And the viability at 24 h, 30 μg/mL ([7]; 30 μg/mL)?
A: 79 ± 1.1%

Q: And the viability at 24 h, 40 μg/mL ([7]; 40 μg/mL)?
A: 70.3 ± 1.6%

Q: And the viability at 24 h, 50 μg/mL ([7]; 50 μg/mL)?
A: 59 ± 1.81%

Q: And the viability at 24 h, 100 μg/mL ([7]; 100 μg/mL)?
A: 47.1 ± 2.64%

Q: And the viability at 24 h, 5 μg/mL ([8]; 5 μg/mL)?
A: 97.28 ± 0.33%

Q: And the viability at 24 h, 10 μg/mL ([8]; 10 μg/mL)?
A: 95.28 ± 0.9%

Q: What about the viability at 24 h, 20 μg/mL ([8]; 20 μg/mL) of the same compound?
A: 91.1 ± 1.39%

Q: What about the viability at 24 h, 30 μg/mL ([8]; 30 μg/mL) of the same compound?
A: 87.3 ± 1.5%

Q: And the viability at 24 h, 40 μg/mL ([8]; 40 μg/mL)?
A: 82.6 ± 1.36%

Q: And the viability at 24 h, 50 μg/mL ([8]; 50 μg/mL)?
A: 76.2 ± 1.78%

Q: What about the viability at 24 h, 100 μg/mL ([8]; 100 μg/mL) of the same compound?
A: 67.6 ± 1.48%

Q: And the IC50 [9]?
A: > 100 mg/L

Q: What about the viability at 24 h, 5 μg/mL ([10]; 5 μg/mL) of the same compound?
A: 97.3 ± 0.27%

Q: What about the viability at 24 h, 10 μg/mL ([10]; 10 μg/mL) of the same compound?
A: 94.54 ± 0.58%

Q: What about the viability at 24 h, 20 μg/mL ([10]; 20 μg/mL) of the same compound?
A: 90.07 ± 0.71%

Q: And the viability at 24 h, 30 μg/mL ([10]; 30 μg/mL)?
A: 83.2 ± 1.24%

Q: And the viability at 24 h, 40 μg/mL ([10]; 40 μg/mL)?
A: 77.1 ± 1.63%

Q: And the viability at 24 h, 50 μg/mL ([10]; 50 μg/mL)?
A: 68.6 ± 1.78%

Q: What about the viability at 24 h, 100 μg/mL ([10]; 100 μg/mL) of the same compound?
A: 57.3 ± 1.9%

Q: And the IC50 [11]?
A: > 100 mg/L

Q: And the IC50 [12]?
A: > 100 mg/L

Q: And the viability at 24 h, 100 μg/mL ([13]; PNT-2 normal prostate epithelium cells, 100 μg/mL)?
A: 93.56 ± 0.5%

Q: What about the viability at 24 h, 5 μg/mL ([13]; PNT-2 prostate epithelial cells, 5 μg/mL) of the same compound?
A: 97.49 ± 0.79%

Q: And the viability at 24 h, 20 μg/mL ([13]; PNT-2 prostate epithelial cells, 20 μg/mL)?
A: 96.3 ± 1.04%

Q: And the viability at 24 h, 30 μg/mL ([13]; PNT-2 prostate epithelial cells, 30 μg/mL)?
A: 95.64 ± 0.65%

Q: What about the viability at 24 h, 40 μg/mL ([13]; PNT-2 prostate epithelial cells, 40 μg/mL) of the same compound?
A: 95.37 ± 0.75%

Q: What about the viability at 24 h, 50 μg/mL ([13]; PNT-2 prostate epithelial cells, 50 μg/mL) of the same compound?
A: 94.56 ± 0.32%
